{
  "source": "patent US20120087980A1",
  "about": "“STIMULATION OF NEUROREGENERATION BY FLAVONOID GLYCOSIDES” (priority 2010, published 2012)",
  "key": {"NG108 cells": {"tested_on": "NG108 cells", "assay": "Microarray gene expression analysis (whole Mouse Genome 4x44k OligoMicroarrays)", "format": "cell-based", "settings": "40 uM isoquercitrin", "experimental": "Cell culture. The NG108-15 neuroblastoma/glioma cells and ND7/23 rat DRG/mouse neuroblastoma cells were seeded at 10^4 cells/cm^2 on laminin coated wells and stimulated for 48 hours with 40 μM isoquercitrin (Cat No 00140585, Sigma) alone or in combination with either 10 μM Rho Kinase inhibitor Y-27632 (Cat No Y0503, Sigma) or 0.25 μg/ml Rho inhibitor Exoenzyme C3 Transferase (Cat No CT04, Cytoskeleton). Later, isoquercitrin stimulated cells were incubated with 0.2 unit/ml Rho Activator Calpeptin (Cat No CN01, Cytoskeleton) or, alternatively with 0.25 μM Phospholipase C inhibitor U73122 (Cat No 662035, Calbiochem). Live Cell Imaging. During incubation, cells were observed by time-lapse live cell imaging with Cell-IQ (Chip-Man Technologies, Ltd). Quantitative analysis of neurite length/cell was performed using Cell-IQ Analyser Software. Cell imaging by Immunofluorescence. Cells were cultured for 48 hrs on a Chamber Slide™ System (Lab-Tek™) under the above described conditions. Then, the cells were fixed and permeabilized with 4% formaldehyde/0.1% Triton X100 in PBS for 20 min at 4° C. After blocking with PBS containing 20% FBS and 5% BSA for 1 h at room temperature, they were incubated with mAb anti-synaptotagmin-1 (1:200, SY Synaptic Systems) for 1 hr at room temperature. Following three washes in PBS, cells were incubated with Alexa Fluor® 488 goat anti-mouse IgG/IgM (Invitrogen) for 30 min at room temperature. Afterwards, cells were incubated with 0.13 μg/ml phalloidin in the dark for 30 min at 4° C. Finally DAPI was added and last 30 min. Samples were rinsed three times and kept in PBS. The imaging was performed using Confocal Laser Scanning Microscope (Carl Zeiss AG). Assay for RhoA activation. For RhoA activation assay, the procedure followed the manufacture's instruction regarding RhoA G-LISA™ Activation Assay (Cytoskeleton). Briefly, grown cells were homogenized in a lysis buffer and were centrifuged at 14,000 rpm for 2 min. The supernatants, containing equal amount of proteins (60 μg/30 μl), were transferred into a 96 well plate and equal volumes of ice-cold binding buffer were added into each well. The plate was incubated for 30 min under shaking (400 rpm) at 4° C. Then they were incubated with diluted anti-RhoA primary antibodies followed by secondary antibodies while shaking (400 rpm) at room temperature for 45 min each. The plate was incubated with an HRP detection reagent for 15 min at 37° C. and, after addition of an HRP stop buffer, the absorbance was immediately recorded at 490 nm. Microarray and RT-PCR. Total cellular RNA was isolated using the RNAeasy spin columns with the DNAse digestion step. The purity and concentration were determined using a Nanoprop ND 1000 (Nanoprop Technologies, Delaware, USA) and a Bioanalyzer 2100 (Agilent, Waldbronn, Germany). All samples had 260/280 nm ratio above 1.8 and a 28S/18S ratio within 1.5-2. RNA (600 ng) was reverse transcribed into double-stranded complementary DNA (ds-cDNA) in the presence of RNA poly-A controls, RNA Spike-In Kit, Two-Color. The ds-cDNA was in vitro transcribed in the presence of Cy3 (control) and Cy5 (flavonoid-stimulated) labelled nucleotides using a Quick Amp labelling, two-color kit (Agilent P/N 5190-0444, Waldbronn, Germany). Transcription products (1.65 μg) were blocked, fragmented and hybridized to whole Mouse Genome 4×44k OligoMicroarrays (Agilent G4122F) for 17 h at 65° C. Arrays were then washed according to the manufacturer instructions and an Agilent Microarray Scanner used to measure the fluorescent intensity emitted by the labeled target. Total RNA was also reverse transcribed using oligo-dT primer and Superscript III enzyme (Invitrogen). […]"}, "[1]": {"tested_on": "NG108-15 neuroblastoma-glioma hybridoma cells and the ND7/23 neural cell line", "assay": "Incubation of neural cell lines with 15 flavonoids, neurite formation", "format": "cell-based", "settings": "for neurite formation: screen of 15 flavonoids, NG108-15 and ND7/23 cells", "experimental": "Cell culture. The NG108-15 neuroblastoma/glioma cells and ND7/23 rat DRG/mouse neuroblastoma cells were seeded at 10^4 cells/cm^2 on laminin coated wells and stimulated for 48 hours with 40 μM isoquercitrin (Cat No 00140585, Sigma) alone or in combination with either 10 μM Rho Kinase inhibitor Y-27632 (Cat No Y0503, Sigma) or 0.25 μg/ml Rho inhibitor Exoenzyme C3 Transferase (Cat No CT04, Cytoskeleton). Later, isoquercitrin stimulated cells were incubated with 0.2 unit/ml Rho Activator Calpeptin (Cat No CN01, Cytoskeleton) or, alternatively with 0.25 μM Phospholipase C inhibitor U73122 (Cat No 662035, Calbiochem). Live Cell Imaging. During incubation, cells were observed by time-lapse live cell imaging with Cell-IQ (Chip-Man Technologies, Ltd). Quantitative analysis of neurite length/cell was performed using Cell-IQ Analyser Software. Cell imaging by Immunofluorescence. Cells were cultured for 48 hrs on a Chamber Slide™ System (Lab-Tek™) under the above described conditions. Then, the cells were fixed and permeabilized with 4% formaldehyde/0.1% Triton X100 in PBS for 20 min at 4° C. After blocking with PBS containing 20% FBS and 5% BSA for 1 h at room temperature, they were incubated with mAb anti-synaptotagmin-1 (1:200, SY Synaptic Systems) for 1 hr at room temperature. Following three washes in PBS, cells were incubated with Alexa Fluor® 488 goat anti-mouse IgG/IgM (Invitrogen) for 30 min at room temperature. Afterwards, cells were incubated with 0.13 μg/ml phalloidin in the dark for 30 min at 4° C. Finally DAPI was added and last 30 min. Samples were rinsed three times and kept in PBS. The imaging was performed using Confocal Laser Scanning Microscope (Carl Zeiss AG). Assay for RhoA activation. […] The plate was incubated with an HRP detection reagent for 15 min at 37° C. and, after addition of an HRP stop buffer, the absorbance was immediately recorded at 490 nm. […] The purity and concentration were determined using a Nanoprop ND 1000 (Nanoprop Technologies, Delaware, USA) and a Bioanalyzer 2100 (Agilent, Waldbronn, Germany). […]"}, "[2]": {"tested_on": "PC3 human prostatic cancer cells, NIH 3T3 fibroblasts, and podocytes", "settings": "PC3, NIH 3T3 fibroblasts, references [6-8]; cited from earlier work"}, "RhoA": {"tested_on": "RhoA", "assay": "RhoA G-LISA Activation Assay", "format": "cell-based", "settings": "RhoA Activator for 40 min after 48 hr isoquercitrin incubation (control)", "experimental": "FIG. 6 illustrates RhoA activation. […] RhoA activity is depressed following administration of isoquercitrin for 48 hrs.\nCell culture. The NG108-15 neuroblastoma/glioma cells and ND7/23 rat DRG/mouse neuroblastoma cells were seeded at 10^4 cells/cm^2 on laminin coated wells and stimulated for 48 hours with 40 μM isoquercitrin (Cat No 00140585, Sigma) alone or in combination with either 10 μM Rho Kinase inhibitor Y-27632 (Cat No Y0503, Sigma) or 0.25 μg/ml Rho inhibitor Exoenzyme C3 Transferase (Cat No CT04, Cytoskeleton). Later, isoquercitrin stimulated cells were incubated with 0.2 unit/ml Rho Activator Calpeptin (Cat No CN01, Cytoskeleton) or, alternatively with 0.25 μM Phospholipase C inhibitor U73122 (Cat No 662035, Calbiochem). Live Cell Imaging. During incubation, cells were observed by time-lapse live cell imaging with Cell-IQ (Chip-Man Technologies, Ltd). Quantitative analysis of neurite length/cell was performed using Cell-IQ Analyser Software. Cell imaging by Immunofluorescence. […] The plate was incubated with an HRP detection reagent for 15 min at 37° C. and, after addition of an HRP stop buffer, the absorbance was immediately recorded at 490 nm. […] The purity and concentration were determined using a Nanoprop ND 1000 (Nanoprop Technologies, Delaware, USA) and a Bioanalyzer 2100 (Agilent, Waldbronn, Germany). […]"}, "PC 12 cells": {"tested_on": "PC 12 cells", "settings": "via the ERK pathway, reference [1]; cited from earlier work"}},
  "data": [
    {"smiles": "O=c1c(O[C@@H]2O[C@H](CO)[C@@H](O)[C@H](O)[C@H]2O)c(-c2ccc(O)c(O)c2)oc2cc(O)cc(O)c12", "note": "[isoquercitrin, quercetin-3-β-D-glycoside]", "values": [
      {"measurement": "Fold-change, GABA A receptor-associated protein-like 1 Gene", "setting": "NG108 cells", "value": 2.361},
      {"measurement": "Fold-change, calcium and integrin binding 1 (calmyrin) Gene", "setting": "NG108 cells", "value": 1.297},
      {"measurement": "Fold-change, cholinergic receptor, nicotinic, alpha polypeptide 10 Gene", "setting": "NG108 cells", "value": 1.438},
      {"measurement": "Fold-change, cortactin binding protein 2 Gene", "setting": "NG108 cells", "value": 1.518},
      {"measurement": "Fold-change, dopamine receptor 4 Gene", "setting": "NG108 cells", "value": 1.248},
      {"measurement": "Fold-change, glutamate receptor, ionotropic, N-methyl D-aspartate-associated protein 1 Gene", "setting": "NG108 cells", "value": 1.595},
      {"measurement": "Fold-change, neural proliferation, differentiation and control gene 1 Gene", "setting": "NG108 cells", "value": 1.385},
      {"measurement": "Fold-change, neuroligin 2 Gene", "setting": "NG108 cells", "value": 1.266},
      {"measurement": "Fold-change, neurotrophin 5 Gene", "setting": "NG108 cells", "value": 1.325},
      {"measurement": "Fold-change, protein kinase C and casein kinase substrate in neurons 1 Gene", "setting": "NG108 cells", "value": 1.398},
      {"measurement": "Fold-change, reticulon 3 Gene", "setting": "NG108 cells", "value": 1.316},
      {"measurement": "Fold-change, synapsin I Gene", "setting": "NG108 cells", "value": 1.287},
      {"measurement": "Fold-change, synapsin II Gene", "setting": "NG108 cells", "value": 1.518},
      {"measurement": "Fold-change, synaptogyrin 1 Gene", "setting": "NG108 cells", "value": 2.130},
      {"measurement": "Fold-change, synaptopodin 2-like Gene", "setting": "NG108 cells", "value": 1.393},
      {"measurement": "Fold-change, synaptotagmin I Gene", "setting": "NG108 cells", "value": 1.934},
      {"measurement": "Fold-change, synaptotagmin IV Gene", "setting": "NG108 cells", "value": 1.825},
      {"measurement": "Fold-change, synaptotagmin XI Gene", "setting": "NG108 cells", "value": 1.913},
      {"measurement": "persistence of neurite networks", "setting": "[1]; in comparison to the other substances tested", "value": "up to 4 days of culture"}
    ]},
    {"smiles": "C[C@@H](N)[C@H]1CC[C@H](C(=O)Nc2ccncc2)CC1", "note": "[Y-27632]", "values": [
      {"measurement": "cell morphology on ROCK inhibition", "setting": "[2]", "value": "elongated morphology"}
    ]},
    {"smiles": "CCCC[C@@H](C=O)NC(=O)[C@H](CC(C)C)NC(=O)OCc1ccccc1", "note": "[RhoA Activator]", "values": [
      {"measurement": "RhoA activation (G-LISA) after RhoA Activator", "setting": "RhoA", "value": "increases RhoA activation"}
    ]},
    {"smiles": "O=c1c(O)c(-c2ccc(O)cc2)oc2cc(O)cc(O)c12", "note": "[kaempferol]", "values": [
      {"measurement": "neurite formation", "setting": "[1]", "value": "significant neurites"}
    ]},
    {"smiles": "O=c1c(O)c(-c2ccc(O)c(O)c2)oc2cc(O)ccc12", "note": "[fisetin]", "values": [
      {"measurement": "neurite formation", "setting": "[1]", "value": "significant neurites"},
      {"measurement": "neurite outgrowth in PC 12 cells", "setting": "PC 12 cells", "value": "induce neurite outgrowth"}
    ]}
  ]
}
